Test results: the supplement of paper PMC10627819

How the values were obtained:
Assay in all cases: fitness (endpoint OD595 vs no drug) (fraction); higher = more growth
[1] = test system: S. aureus DSM 20231
In short: (§1)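 Each well of a 384-well plate received 30 µl of culture at OD595 0.01, or 55 µl for S. pneumoniae. TSB, LB Lennox or CY served as media at 37 °C. OD595 was taken every 30 min for 14 h and corrected by subtracting the first reading. Fitness is the optical density at stationary-phase entry divided by the robust mean of no-drug controls, capped at 1.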

[2] = test system: S. pneumoniae D39V
In short: as §1

[3] = test system: S. aureus Newman
In short: as §1

CCC[C@@H]1C[C@@H](C(=O)N[C@@H]([C@H]2O[C@H](SC)[C@H](O)[C@@H](O)[C@H]2O)[C@@H](C)O)N(C)C1 [Lincomycin] + CO[C@@]12[C@H](COC(N)=O)C3=C(C(=O)C(C)=C(N)C3=O)N1C[C@@H]1N[C@@H]12 [Mitomycin C]
Settings	fitness
[1], first compound 0.1 µg/mL, partner 0.0156 µg/mL	0.645
[1], first compound 0.1 µg/mL, partner 0.0312 µg/mL	0.651
[1], first compound 0.1 µg/mL, partner 0.0625 µg/mL	0.502
[1], first compound 0.2 µg/mL, partner 0.0156 µg/mL	0.613
[1], first compound 0.2 µg/mL, partner 0.0312 µg/mL	0.567
[1], first compound 0.2 µg/mL, partner 0.0625 µg/mL	0.383
[1], first compound 0.4 µg/mL, partner 0.0156 µg/mL	0.217
[1], first compound 0.4 µg/mL, partner 0.0312 µg/mL	0.199
[1], first compound 0.4 µg/mL, partner 0.0625 µg/mL	0.108
[2], first compound 0.2 µg/mL, partner 0.001075 µg/mL	0.679
[2], first compound 0.2 µg/mL, partner 0.00215 µg/mL	0.69
[2], first compound 0.2 µg/mL, partner 0.0043 µg/mL	0.603
[2], first compound 0.215 µg/mL, partner 0.002 µg/mL	0.709
[2], first compound 0.215 µg/mL, partner 0.004 µg/mL	0.73
[2], first compound 0.215 µg/mL, partner 0.008 µg/mL	0.657
[2], first compound 0.4 µg/mL, partner 0.001075 µg/mL	0.605
[2], first compound 0.4 µg/mL, partner 0.00215 µg/mL	0.609
[2], first compound 0.4 µg/mL, partner 0.0043 µg/mL	0.497
[2], first compound 0.43 µg/mL, partner 0.002 µg/mL	0.615
[2], first compound 0.43 µg/mL, partner 0.004 µg/mL	0.614
[2], first compound 0.43 µg/mL, partner 0.008 µg/mL	0.514
[2], first compound 0.8 µg/mL, partner 0.001075 µg/mL	0.221
[2], first compound 0.8 µg/mL, partner 0.00215 µg/mL	0.218
[2], first compound 0.8 µg/mL, partner 0.0043 µg/mL	0.131
[2], first compound 0.86 µg/mL, partner 0.002 µg/mL	0.246
[2], first compound 0.86 µg/mL, partner 0.004 µg/mL	0.258
[2], first compound 0.86 µg/mL, partner 0.008 µg/mL	0.266

COc1c(N2C[C@@H]3CCCN[C@@H]3C2)c(F)cc2c(=O)c(C(=O)O)cn(C3CC3)c12 [Moxifloxacin] + CC1(C)S[C@@H]2[C@H](NC(=O)Cc3ccccc3)C(=O)N2[C@H]1C(=O)O [Penicillin G]
fitness, [3]
Settings	first compound 0.0075 µg/mL	first compound 0.015 µg/mL	first compound 0.03 µg/mL
partner 0.0195 µg/mL	0.722	0.625	0.081
partner 0.039 µg/mL	0.706	–	0.059
partner 0.078 µg/mL	0.721	0.596	0.0633

C/C(=C\C(=O)OCCCCCCCCC(=O)O)C[C@@H]1OC[C@H](C[C@@H]2O[C@H]2[C@@H](C)[C@H](C)O)[C@@H](O)[C@H]1O [Pseudomonic acid] + CC1(C)S[C@@H]2[C@H](NC(=O)Cc3ccccc3)C(=O)N2[C@H]1C(=O)O [Penicillin G]
fitness, [3], one replicate
Settings	first compound 0.0313 µg/mL	first compound 0.0625 µg/mL	first compound 0.125 µg/mL
partner 0.0195 µg/mL	0.0428	0.0466	0.0353
partner 0.039 µg/mL	0.0545	0.0468	0.0403
partner 0.078 µg/mL	0.069	0.0571	0.0351

C/C(=C\C(=O)OCCCCCCCCC(=O)O)C[C@@H]1OC[C@H](C[C@@H]2O[C@H]2[C@@H](C)[C@H](C)O)[C@@H](O)[C@H]1O [Pseudomonic acid] + CCN(CC)CCOC(=O)c1ccc(N)cc1 [Procaine]
fitness, [3], one replicate
Settings	first compound 0.0313 µg/mL	first compound 0.0625 µg/mL	first compound 0.125 µg/mL
partner 85.5 µg/mL	0.0858	0.046	0.0525
partner 171 µg/mL	0.0636	0.045	0.0572
partner 342 µg/mL	0.0723	0.0522	0.0551

fitness, [2]
Settings	first compound 0.03 µg/mL	first compound 0.06 µg/mL	first compound 0.12 µg/mL
partner 85.5 µg/mL	0.867	0.69	0.587
partner 171 µg/mL	0.92	0.762	0.581
partner 342 µg/mL	0.878	0.716	0.583
